# According to patent publication US20010014676A1, “Immunosuppressive compositions” (priority 1990, published 2001):
# Tested on: Lewis-Brown Norway F1 Hybrid cardiac allografts in Lewis recipients
# Assay: acute cardiac allograft rejection model (procedure of Kupiec-Weglinski)
# Format: in vivo, rat
# Settings: for GRAFT SURVIVAL MEAN ± SD: N=7
# Protocol: The therapeutic efficacy of a pharmaceutical composition of the invention was tested according to the procedure of Kupiec-Weglinski, J. W., et al., (1988) Transplant Proc. 20:207-216 (hereinafter “Kupiec-Weglinski”) to determine its in vivo potency as an acute transplantation/graft rejection modulator.
# Briefly, to preform these experiments, the following protocol was employed. Male inbred adult rats (Lewis-Brown Norway F1 Hybrid rats, obtained from Harlan sprague—Dawley Inc., Indianapolis, Ind.) were used. Lewis-Brown Norway F1 Hybrid cardiac allografts were transplanted to the abdominal great vessels of Lewis recipients. The animals were administered compounds according to the following five distinct regimens.
# Protocol I. Pretreatment Protocol—20 mg/kg/day of Compound A was administered orally for 7 consecutive days prior to transplantation (days −7 to −1).
# Protocol II Treatment Protocol—20 mg/kg/day of Compound A was administered orally for 7 consecutive post-transplant days (days 0-6) followed by intermittent 5 day courses (days 9-13 and 16-20).
# Protocol III Pretreatment and Treatment Protocol—20 mg/kg/day of Compound A was administered orally for 7 consecutive days prior to transplantation (days −7 to −1) followed by intermittent 5 day courses (days 9-13 and 16-20).
# Ventricular contractions were assessed daily by palpation through the recipient flank. Rejection was defined as the day of cessation of myocardial contractions and confirmed histologically.
smiles,measurement,setting,value
"CCCC1(CCC)CCC2(CCN(CCCN(C)C)C2)CC1 [Compound A, N,N-dimethyl-8,8-dipropyl-2-azaspiro [4,5]-decane-2-propanamine]",average graft survival time,"Compound A alone (pretreatment, treatment or pretreatment and treatment protocol), untreated average 7 days",16 days
same,GRAFT SURVIVAL MEAN ± SD,"Protocol I pretreatment: Compound A 20 mg/kg/day orally, days -7 to -1",14.7 ± 5.8 days
same,GRAFT SURVIVAL MEAN ± SD,"Protocol II treatment: Compound A 20 mg/kg/day orally, days 0-6, then days 9-13 and 16-20",16.7 ± 2.0 days
same,GRAFT SURVIVAL MEAN ± SD,"Protocol III pretreatment and treatment: Compound A 20 mg/kg/day orally, days -7 to -1, then days 9-13 and 16-20",16.0 ± 4.3 days
same,graft survival time (transplants routinely retained),"combination protocol: Compound A 20 mg/kg/day orally plus cyclosporin A […] by injection, days 0-6",over 40 days
